The target in test [1] is T1, human B1R receptor (hB1R) (Homo sapiens, UniProt P46663).
T1 construct: host or cells: CHO K1 cells
T1 sequence (P46663 1-353): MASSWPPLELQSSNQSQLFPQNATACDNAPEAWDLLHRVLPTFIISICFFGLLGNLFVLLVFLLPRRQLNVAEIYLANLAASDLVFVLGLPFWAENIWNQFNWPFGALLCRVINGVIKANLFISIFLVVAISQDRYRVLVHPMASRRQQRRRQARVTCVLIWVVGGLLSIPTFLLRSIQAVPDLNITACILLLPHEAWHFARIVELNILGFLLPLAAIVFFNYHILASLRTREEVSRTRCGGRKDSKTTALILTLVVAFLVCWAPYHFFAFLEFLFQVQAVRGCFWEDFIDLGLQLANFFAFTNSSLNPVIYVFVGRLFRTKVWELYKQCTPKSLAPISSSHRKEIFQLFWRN
In words: FLIPR Ca2+ assay (Fluo-4) on CHO K1 cells stably transfected with the human B1R gene. Type of test: cell-based. As to conditions: CHO-K1; test substance 10 μM; agonist Lys-Des-Arg9-bradykinin 0.5 nM; % inhibition compared to the maximum achievable inhibition. The method in brief:
(§1)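 CHO K1 cells stably expressing human or rat B1R, Fluo-4 loaded, read by FLIPR (Ex 488/Em 540, peak fluorescence). Compound at 10 μM gives % activation vs agonist. After 10 min, agonist added (human: Lys-Des-Arg9-bradykinin 0.5 nM; rat: Des-Arg9-bradykinin 100 nM); % inhibition relative to maximal achievable inhibition.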

Test [2] concerns the target T2, B1R receptor of rats (rB1R) (Rattus norvegicus, UniProt P97583).
T2 construct: host or cells: CHO K1 cells
T2 sequence (P97583 1-337): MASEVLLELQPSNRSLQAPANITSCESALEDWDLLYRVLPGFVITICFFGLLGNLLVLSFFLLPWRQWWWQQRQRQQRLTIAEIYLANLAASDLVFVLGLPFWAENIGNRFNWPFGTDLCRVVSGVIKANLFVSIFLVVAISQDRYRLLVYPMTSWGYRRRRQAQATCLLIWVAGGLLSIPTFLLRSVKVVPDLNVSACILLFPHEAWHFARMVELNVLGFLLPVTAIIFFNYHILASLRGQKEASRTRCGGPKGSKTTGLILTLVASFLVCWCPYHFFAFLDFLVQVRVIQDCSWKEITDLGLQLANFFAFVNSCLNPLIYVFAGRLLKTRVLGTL
Nature of the test: FLIPR Ca2+ assay (Fluo-4) on CHO K1 cells stably transfected with the B1R gene of rats. Type of test: cell-based. The conditions noted are these: CHO-K1; test substance 10 μM; agonist Des-Arg9-bradykinin 100 nM; % inhibition compared to the maximum achievable inhibition. The method in brief:
as §1

As usually defined, the inhibition is the change of the read-out against control, counted positive when it falls.

SMILES strings stand for the structures.

For `COc1cc(C)c(S(=O)(=O)N2CCCCC2CCC(=O)N2CCn3cc(CCc4ccncc4)nc3C2)c(C)c1` (stereo not shown) [(117), 3-(1-(4-Methoxy-2,6-dimethylphenylsulfonyl)piperidin-2-yl)-1-(2-(2-(pyridin-4-yl)ethyl)-5,6-dihydroimidazo[1,2-a]pyrazin-7(8H)-yl)propan-1-one], the inhibition at 10 µM was 82% in test [1] and 98% in test [2].

Take `COc1cc(C)c(S(=O)(=O)N2CCCCC2CCCC(=O)N2CCn3cc(CCc4ccncc4)nc3C2)c(C)c1` (stereo not shown) [(118), 4-(1-(4-Methoxy-2,6-dimethylphenylsulfonyl)piperidin-2-yl)-1-(2-(2-(pyridin-4-yl)ethyl)-5,6-dihydroimidazo[1,2-a]pyrazin-7(8H)-yl)butan-1-one]: the inhibition at 10 µM was 98% in test [1] and 102% in test [2].

`COc1cc(C)c(S(=O)(=O)N2CCCCC2CCCC(=O)N2CCn3cc(Cc4ccncc4)nc3C2)c(C)c1` (stereo not shown) [(119), 4-(1-(4-Methoxy-2,6-dimethylphenylsulfonyl)piperidin-2-yl)-1-(2-(pyridin-4-ylmethyl)-5,6-dihydroimidazo[1,2-a]pyrazin-7(8H)-yl)butan-1-one]: the inhibition at 10 µM in test [1] stood at 90%; in test [2] it was 107%.

With `COc1cc(C)c(S(=O)(=O)N2CCCCC2COCC(=O)N2CCn3cc(Cc4ccncc4)nc3C2)c(C)c1` (stereo not shown) [(120), 2-((1-(4-Methoxy-2,6-dimethylphenylsulfonyl)piperidin-2-yl)methoxy)-1-(2-(pyridin-4-ylmethyl)-5,6-dihydroimidazo[1,2-a]pyrazin-7(8H)-yl)ethanone], the inhibition at 10 µM in test [1] is 99%; in test [2] it was 105%.

Turning to `COc1cc(C)c(S(=O)(=O)N2CCCCC2CCC(=O)N2CCn3cc(Cc4ccncc4)nc3C2)c(C)c1` (stereo not shown) [(121), 3-(1-(4-Methoxy-2,6-dimethylphenylsulfonyl)piperidin-2-yl)-1-(2-(pyridin-4-ylmethyl)-5,6-dihydroimidazo[1,2-a]pyrazin-7(8H)-yl)propan-1-one], the inhibition at 10 µM in test [1] stood at 66%; in test [2], 51%.

The values are drawn from patent publication US8178535B2, “Substituted sulfonamide compounds having bradykinin 1 receptor activity and use thereof as medicaments” (Gruenenthal GmbH, priority 2008, dated 2012).
